Measurements reported in patent US11365188B2, “JAK inhibitors” (priority 2018, dated 2022).

Target: JAK1 (Homo sapiens, UniProt P23458)
Assay: JAK Kinase Assay (JAK1, Caliper EZ Reader, fluoresceinated peptide)
Assay type: biochemical
Settings: ATP 76.5 μM; JAK1 10 nM; 120 minutes at room temperature; read-out: JAK1 inhibition
Description: JAK Kinase Assay 384-well plates in the left foot butoxy measured progress. The final assay volume was 25 μL, 250 nL 100× compounds, 10 μL enzyme mix and 15 μL substrate mix (fluoresceinated peptide and ATP) in assay buffer (20 mM HEPES (pH 7.5), 10 mM MgCl2, […], 0.5 mM EGTA and 2 mM DTT) prepared as test compound. By mixing the JAK1 with substrates and test compounds to start the reaction. There action mixture was incubated for 120 minutes at room temperature, then added 30 μL stop buffer for each sample to terminate the reaction with 50 mM EDTA. After termination of the kinase reaction, the proportion of phosphorylated product was determined as a fraction of total peptide substrate using Caliper EZ Reader II. Inhibition data were calculated by comparison with 100% of the reaction mixture without enzyme inhibition and vehicle-only reaction mixture billion % inhibition compared. The final concentration of reagents in the assays is: ATP, 76.5 μM; JAK1 fluorescent peptide (5-FAM-EEPLYWSFPAKKK-CONH2), 3 μM; JAK1, 10 nM, and DMSO, 1%. Dose response curve were generated to determine the concentration required for IC50 of JAK activity.

Sequence of JAK1 (P23458 whole entry, species assumed): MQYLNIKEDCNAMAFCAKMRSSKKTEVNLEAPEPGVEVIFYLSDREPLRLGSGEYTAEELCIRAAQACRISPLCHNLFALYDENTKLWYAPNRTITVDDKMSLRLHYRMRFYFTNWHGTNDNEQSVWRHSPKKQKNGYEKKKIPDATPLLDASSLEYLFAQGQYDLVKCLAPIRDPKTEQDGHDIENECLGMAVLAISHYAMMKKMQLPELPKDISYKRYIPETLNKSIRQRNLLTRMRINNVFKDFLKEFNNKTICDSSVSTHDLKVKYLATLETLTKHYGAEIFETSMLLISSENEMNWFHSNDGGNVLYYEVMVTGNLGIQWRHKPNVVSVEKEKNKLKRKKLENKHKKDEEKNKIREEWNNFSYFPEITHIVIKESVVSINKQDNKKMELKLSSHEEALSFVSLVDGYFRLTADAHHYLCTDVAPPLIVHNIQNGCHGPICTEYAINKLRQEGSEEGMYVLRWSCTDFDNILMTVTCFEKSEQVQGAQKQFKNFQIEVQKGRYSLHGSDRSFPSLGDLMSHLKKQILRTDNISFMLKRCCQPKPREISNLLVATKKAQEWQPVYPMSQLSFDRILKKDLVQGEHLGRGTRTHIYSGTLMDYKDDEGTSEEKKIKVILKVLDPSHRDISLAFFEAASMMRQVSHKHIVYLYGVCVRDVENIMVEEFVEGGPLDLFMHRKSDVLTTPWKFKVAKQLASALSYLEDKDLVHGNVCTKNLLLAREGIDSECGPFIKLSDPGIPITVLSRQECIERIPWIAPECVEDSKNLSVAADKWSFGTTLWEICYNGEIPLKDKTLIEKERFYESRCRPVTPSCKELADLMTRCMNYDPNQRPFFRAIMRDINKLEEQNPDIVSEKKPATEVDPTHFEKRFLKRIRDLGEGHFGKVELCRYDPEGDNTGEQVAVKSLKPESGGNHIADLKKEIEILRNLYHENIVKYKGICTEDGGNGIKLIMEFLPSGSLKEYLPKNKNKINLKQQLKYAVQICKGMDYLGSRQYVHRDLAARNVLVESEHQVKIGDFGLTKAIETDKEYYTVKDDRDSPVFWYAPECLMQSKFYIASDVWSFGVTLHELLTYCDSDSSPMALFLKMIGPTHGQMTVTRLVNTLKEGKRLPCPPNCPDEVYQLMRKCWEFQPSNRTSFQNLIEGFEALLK

Row | IC50 [µM] | Structure (SMILES)
1 | 0.01 to 0.1 | CN(c1ncnc2[nH]ccc12)C1CCC2(CC1)CCN(C(=O)Nc1ccc(C#N)cc1)CC2 [Compound 121, N-(4-cyanophenyl)-9-(methyl(7H-pyrrolo[2,3-d]pyrimidin-4-yl)amino)-3-azaspiro[5.5]undecane-3-carboxamide]
2 | 0.1 to 1 | CN(c1ncnc2[nH]ccc12)C1CCC2(CC1)CCN(C(=O)Nc1ccn(C)n1)CC2 [Compound 127, 9-(methyl(7H-pyrrolo[2,3-d]pyrimidin-4-yl)amino)-N-(1-methyl-1H-pyrazol-3-yl)-3-azaspiro[5.5]undecane-3-carboxamide]
3 | ≤ 0.01 | COc1nsc(NC(=O)N2CCC3(CCC(N(C)c4ncnc5[nH]ccc45)CC3)CC2)n1 [Compound 74, N-(3-methoxy-1,2,4-thiadiazol-5-yl)-9-(methyl(7H-pyrrolo[2,3-d]pyrimidin-4-yl)amino)-3-azaspiro[5.5]undecane-3-carboxamide]
4 | 0.01 to 0.1 | Cc1cc(C(=O)N2CC3(CC(N(C)c4ncnc5[nH]ccc45)C3)C2)c(F)cc1C#N [Compound 54, 5-fluoro-2-methyl-4-(6-(methyl(7H-pyrrolo[2,3-d]pyrimidin-4-yl)amino)-2-azaspiro[3.3]heptane-2-carbonyl)benzonitrile]
5 | 0.01 to 0.1 | CN(c1ncnc2[nH]ccc12)C1CC2(C1)CN(C(=O)c1cc(F)c(C#N)cc1F)C2 [Compound 51, 2,5-difluoro-4-(6-(methyl(7H-pyrrolo[2,3-d]pyrimidin-4-yl)amino)-2-azaspiro[3.3]heptane-2-carbonyl)benzonitrile]
6 | 1 to 10 | Cc1cnc(NC(=O)N2CCC3(CCC(N(C)c4ncnc5[nH]ccc45)CC3)CC2)cn1 [Compound 128, 9-(methyl(7H-pyrrolo[2,3-d]pyrimidin-4-yl)amino)-N-(5-methylpyrazin-2-yl)-3-azaspiro[5.5]undecane-3-carboxamide]
7 | ≤ 0.01 | CN(c1ncnc2[nH]ccc12)C1CCC2(CC1)CCN(C(=O)Nc1cccc(C#N)n1)CC2 [Compound 123, N-(6-cyanopyridin-2-yl)-9-(methyl(7H-pyrrolo[2,3-d]pyrimidin-4-yl)amino)-3-azaspiro[5.5]undecane-3-carboxamide]
8 | 0.01 to 0.1 | CN(c1ncnc2[nH]ccc12)C1CCC2(CC1)CCN(C(=O)Nc1ncc(F)s1)CC2 [Compound 131, N-(5-fluorothiazol-2-yl)-9-(methyl(7H-pyrrolo[2,3-d]pyrimidin-4-yl)amino)-3-azaspiro[5.5]undecane-3-carboxamide]
9 | 1 to 10 | CN(c1ncnc2[nH]ccc12)C1CCC2(CC1)CCN(C(=O)Nc1ccc(C#N)cn1)CC2 [Compound 125, N-(5-cyanopyridin-2-yl)-9-(methyl(7H-pyrrolo[2,3-d]pyrimidin-4-yl)amino)-3-azaspiro[5.5]undecane-3-carboxamide]
10 | ≤ 0.01 | CN(c1ncnc2[nH]ccc12)C1CC2(C1)CN(C(=O)c1ccc(F)c(C#N)c1)C2 [Compound 57, 2-Fluoro-5-{6-[methyl-(7H-pyrrolo[2,3-d]pyrimidin-4-yl)-amino]-2-aza-spiro[3.3]heptane-2-carbonyl}-benzonitrile]
11 | 0.1 to 1 | Cc1cnc(NC(=O)N2CCC3(CCC(N(C)c4ncnc5[nH]ccc45)CC3)CC2)s1 [Compound 126, 9-(methyl(7H-pyrrolo[2,3-d]pyrimidin-4-yl)amino)-N-(5-methylthiazol-2-yl)-3-azaspiro[5.5]undecane-3-carboxamide]
12 | ≥ 10 | CCN(CC)S(=O)(=O)N1CCC2(CCC(N(C)c3ncnc4[nH]ccc34)CC2)CC1 [Compound 111, N,N-diethyl-9-(methyl(7H-pyrrolo[2,3-d]pyrimidin-4-yl)amino)-3-azaspiro[5.5]undecane-3-sulfonamide]
13 | ≤ 0.01 | CN(c1ncnc2[nH]ccc12)C1CC2(C1)CN(C(=O)c1ccc(C#N)c(Cl)c1Cl)C2 [Compound 60, 2,3-Dichloro-4-{6-[methyl-(7H-pyrrolo[2,3-d]pyrimidin-4-yl)-amino]-2-aza-spiro[3.3]heptane-2-carbonyl}-benzonitrile]
14 | 0.01 to 0.1 | CN(c1ncnc2[nH]ccc12)C1CC2(C1)CN(C(=O)c1cc(F)c(F)c(C#N)c1)C2 [Compound 62, 2,3-Difluoro-5-{6-[methyl-(7H-pyrrolo[2,3-d]pyrimidin-4-yl)-amino]-2-aza-spiro[3.3]heptane-2-carbonyl}-benzonitrile]
15 | 1 to 10 | CN(c1ncnc2[nH]ccc12)C1CCC2(CC1)CCN(C(=O)CCS(N)(=O)=O)CC2 [Compound 113, 3-(9-(methyl(7H-pyrrolo[2,3-d]pyrimidin-4-yl)amino)-3-azaspiro[5.5]undecan-3-yl)-3-oxopropane-1-sulfonamide]
16 | ≤ 0.01 | [2H]C([2H])([2H])N(c1ncnc2[nH]ccc12)C1CC2(C1)CN(C(=O)c1ccc(C#CC)c(F)c1)C2 [Compound 66]
17 | ≤ 0.01 | CN(c1ncnc2[nH]ccc12)C1CCC2(CC1)CCN(C(=O)Nc1ncc(C#N)s1)CC2 [Compound 133, N-(5-cyanothiazol-2-yl)-9-(methyl(7H-pyrrolo[2,3-d]pyrimidin-4-yl)amino)-3-azaspiro[5.5]undecane-3-carboxamide]
18 | 0.01 to 0.1 | CN(c1ncnc2[nH]ccc12)C1CC2(C1)CN(C(=O)c1cccc(F)c1F)C2 [Compound 55, (2,3-difluorophenyl)(6-(methyl(7H-pyrrolo[2,3-d]pyrimidin-4-yl)amino)-2-azaspiro[3.3]heptan-2-yl)methanone]
19 | 0.01 to 0.1 | CN(c1ncnc2[nH]ccc12)C1CCC2(CC1)CCN(C(=O)c1ccc(S(N)(=O)=O)cc1)CC2 [Compound 112, 4-(9-(methyl(7H-pyrrolo[2,3-d]pyrimidin-4-yl)amino)-3-azaspiro[5.5]undecane-3-carbonyl)benzenesulfonamide]
20 | ≤ 0.01 | CN(c1ncnc2[nH]ccc12)C1CC2(C1)CN(C(=O)c1cc(F)cc(C#N)c1)C2 [Compound 58, 3-Fluoro-5-{6-[methyl-(7H-pyrrolo[2,3-d]pyrimidin-4-yl)-amino]-2-aza-spiro[3.3]heptane-2-carbonyl}-benzonitrile]
21 | ≤ 0.01 | [2H]C([2H])([2H])N(c1ncnc2[nH]ccc12)C1CC2(C1)CN(C(=O)c1ccc(C#C)c(F)c1)C2 [Compound 64, (4-Ethynyl-3-fluoro-phenyl)-{6-[(methyl-d3)-(7H-pyrrolo[2,3-d]pyrimidin-4-yl)-amino]-2-aza-spiro[3.3]hept-2-yl}-methanone]
22 | 0.1 to 1 | CN(c1ncnc2[nH]ccc12)C1CCC2(CC1)CCN(C(=O)OCC(F)(F)F)CC2 [Compound 108, 2,2,2-trifluoroethyl 9-(methyl(7H-pyrrolo[2,3-d]pyrimidin-4-yl)amino)-3-azaspiro[5.5]undecane-3-carboxylate]
23 | ≤ 0.01 | CN(c1ncnc2[nH]ccc12)C1CC2(C1)CN(C(=O)c1ccc(F)c(C#N)c1F)C2 [Compound 61, 2,6-Difluoro-3-{6-[methyl-(7H-pyrrolo[2,3-d]pyrimidin-4-yl)-amino]-2-aza-spiro[3.3]heptane-2-carbonyl}-benzonitrile]
